Test results as given in patent publication US20230123497A1, “NOVEL ANTIBACTERIAL HYDROGELS” (NewSouth Innovations Pty Limited, priority 2020, published 2023).
Where “and” joins values, the source holds several entries; their conditions need not be identical. Identical values can stand only once. Each block holds one molecule with its values, some of them ahead of it.

Assays:
E. coli K12 [1] = assay: Antibacterial activity of NO released from hydrogel 4 under blue light, viable count method; format: cell-based, Escherichia coli
Experimental: The antibacterial activity of NO released from hydrogel 4 was investigated in vitro. Initially, a single colony of E. coli K12 was grown in LB broth medium (Sigma-Aldrich) at 37° C. overnight. The resulting bacteria were harvested via centrifugation to obtain a bacteria pallet which was re-suspended in the same volume of LB, twice. The optical density value of the resulting culture was adjusted to 0.1 at 600 nm (10^8 cfu·mL^−1). This bacteria solution was then further adjusted to 3×10^4 cfu·mL^−1.
Hydrogel 4 was prepared at 1% w/v in two different vials. The first vial (vial a) contained hydrogel 4 which will be exposed to blue light. Meanwhile vial b contained hydrogel 4, which will be covered using aluminium foil during the entire experiment. Furthermore, on top of these pre-formed hydrogels, 1 mL of bacteria solution was carefully cast. A vial c that contained only 1 mL of bacteria solution was also prepared. Subsequently, vial a and vial c were irradiated using blue light (440-450 nm). As a negative control, a bacteria solution in the absence of hydrogel and blue light was used in this experiment. After 2 hours, 100 μL of bacteria solution in each vial was taken and subjected to serial dilution using PBS. 20 μL of each dilution were carefully transferred into nutrient agar plates and incubated for another 18 hours. The following day, bacterial growth inhibition were quantified using viable count method. The experiment was performed twice in triplicate and multiple sample comparison was performed using one-way ANOVA at p<0.05.
Bacterial culture (1 mL containing 3×10^4 CFU) was carefully placed on top of hydrogel 4, followed by irradiation of blue light for 1 hour. The viability of bacteria after being exposed to blue light was calculated via the viable count method as illustrated in FIG. 15.
Hydrogel 4, by itself, might exert activity against E. coli. Therefore, the antibacterial activity of hydrogel 4 in the absence of blue light was also determined in a control experiment. […]

[2] = NO release from hydrogel 4 quantified with Griess reagent; format: physicochemical
Experimental: NO release from hydrogel 4 was quantified using the Griess reagent, which is an indirect method that measures collected nitrite as the primary degradation product of NO. Nitrobenzene-appended anthranilamide-based hydrogel 4 was pre-formed in an aluminium covered vial at 1% w/v (1 mL). Milli-Q water (1 mL) was carefully cast on top of the hydrogel, which was subsequently exposed to UV or blue light irradiation. At certain time points (0, 5, 15, 30, 60, and 120 min), the entire upper solutions were carefully removed and allowed to react with Griess reagent, according to the indication of the NO assay kit (Promega), to provide an azo compound that is responsible for providing the colorimetric assay. Subsequently, 1 mL of fresh Milli-Q water was immediately added to the top of hydrogel 4 for continuing the release.
Due to the strong absorbance of hydrogel 4 in the UV range, NO release was triggered by using a UV lamp (λ=356 nm). The same volume of Milli-Q water was placed on top of hydrogel 4, which was irradiated with UV light for 2 hours. The entire solution, on top of the hydrogel, was removed and replaced with the same amount of Milli-Q water periodically. The resulting solutions were reacted with Griess reagent. Any NO generated during the experiment would react with oxygen to generate nitrite ion (NO2^−). The subsequent reaction between NO2^− with Griess reagent, which contains sulfanilamide and N-(1-naphthyl)ethylenediamine (NED), will form a bright pink azo-dye compound that can be quantified using UV-Vis spectroscopy, as shown in the below scheme: […]

[3] = Hydrogel formation, vial inversion test (critical gel concentration); format: physicochemical; conditions: solvent switch
S. aureus 38 = assay: Antibacterial activity of cationic hydrogels, viable count method; format: cell-based, Staphylococcus aureus; conditions: hydrogel at 1% w/v in contact with S. aureus, compared to control
Experimental: (§1) The antibacterial activity of the anthranilamide-based cationic hydrogels 11-13 and 15-19 was investigated in vitro against S. aureus. The antibacterial activity of anthranilamide-based cationic hydrogel 11 was also investigated in vitro against E. coli.
(§2) First, a single colony of S. aureus 38 or E. coli K12 was grown in Luria-Bertani (LB) broth medium at 37° C. overnight. The resulting bacteria were harvested, via centrifugation, to obtain a bacteria pellet which was re-suspended in the same volume of LB medium, twice. The optical density (OD) value of the resulting culture was adjusted to 0.1 at 600 nm in LB (10^8 cfu·mL^−1). This bacteria solution was then further adjusted to 3×10^4 cfu mL^−1. (CFU or cfu=colony-forming unit). Bacteria solutions (1 mL), which contain either 10^8 CFUs/mL or 3×10^4 CFUs/mL, were gently added to hydrogel 11 at 1% w/v with total volume of 1 mL. Anthranilamide-based cationic hydrogels 11-13 and 15-19 (1 mL) were prepared at 1% w/v in glass vials as described above. On top of these pre-formed hydrogels, 1 mL of bacteria solution was carefully cast. […] As a negative control, a bacterial solution in the absence of hydrogel was used. After being incubated at 37° C. for 18 hours, 100 μL of bacteria solution in each vial was taken and subjected to serial dilution using phosphate buffer solution (PBS). 20 μL of each dilution were carefully transferred into nutrient agar plates and incubated for another 18 hours. The following day, bacterial growth inhibition was quantified using the viable count method. The experiment was performed twice in triplicate and multiple sample comparison was performed using one-way ANOVA at p<0.05.

E. coli K12 [4] = assay: Antibacterial activity of cationic hydrogel 11, viable count method; format: cell-based, Escherichia coli; conditions: hydrogel 11 at 1% w/v in contact with E. coli
Experimental: as §1
as §2, with “After being incubated at 37° C. for 18 hours, 100 μL of bacteria solution in each vial was taken and subjected to serial dilution using phosphate buffer solution (PBS). 20 μL of each dilution were carefully transferred into nutrient agar plates and incubated for another 18 hours.” left out, “The experiment was performed twice in triplicate and multiple sample comparison was performed using one-way ANOVA at p<0.05.” left out

Time (gelation time) ([3]; DMSO 5 % v/v): Immed. | Time (gelation time) ([3]; MeOH 5 % v/v): Immed.
Compound: O=C(Nc1ccccc1C(=O)N[C@@H](Cc1ccccc1)C(=O)N[C@@H](Cc1ccccc1)C(=O)O)c1ccc([N+](=O)[O-])c(C(F)(F)F)c1 [Compound 4, (2-(4-Nitro-3-(trifluoromethyl)benzamido)benzoyl)-L-phenylalanyl-L-phenylalanine]
Log reduction (E. coli K12 [1]; hydrogel 4 1% w/v, blue light irradiation 1 hour): ~3 Log | bacterial number after treatment (E. coli K12 [1]; hydrogel 4 1% w/v, blue light irradiation 1 hour, from 3×10^4 CFUs): 34 CFUs | bacterial reduction without light (E. coli K12 [1]; hydrogel 4 without light irradiation): no bacterial reduction was observed | NO detected ([2]; hydrogel 1% w/v, UV light (λ=356 nm), 5 minutes): 1 µM | NO generated ([2]; hydrogel 1% w/v, UV light (λ=356 nm), 30 minutes): 7 µM | NO recovered ([2]; hydrogel 1% w/v, UV light, 2 hours): 61% | irradiation time required to generate NO concentration that can kill E. coli ([2]; hydrogel 1% w/v, blue light): 1 h | total NO recovered ([2]; hydrogel 1% w/v, blue light, 2 hours): 23% | NO release in the absence of triggers ([2]; no UV or blue light): does not leach NO

Compound: NCCCNC(=O)[C@H](Cc1ccccc1)NC(=O)c1ccccc1NC(=O)c1ccc2ccccc2c1 [Compound 11]
bacterial reduction (S. aureus 38): 9.0 Log10 | bacteria reduction (E. coli K12 [4]): 6.4 Log10 and 6.2 Log10
